The record followed here is BindingDB's records for doi:10.1021/bi900236k (University of Thessaly, 2009).

The target in this assay is T1, Poly(A)-specific ribonuclease PARN (Homo sapiens, UniProt O95453).
T1 sequence (O95453 whole entry): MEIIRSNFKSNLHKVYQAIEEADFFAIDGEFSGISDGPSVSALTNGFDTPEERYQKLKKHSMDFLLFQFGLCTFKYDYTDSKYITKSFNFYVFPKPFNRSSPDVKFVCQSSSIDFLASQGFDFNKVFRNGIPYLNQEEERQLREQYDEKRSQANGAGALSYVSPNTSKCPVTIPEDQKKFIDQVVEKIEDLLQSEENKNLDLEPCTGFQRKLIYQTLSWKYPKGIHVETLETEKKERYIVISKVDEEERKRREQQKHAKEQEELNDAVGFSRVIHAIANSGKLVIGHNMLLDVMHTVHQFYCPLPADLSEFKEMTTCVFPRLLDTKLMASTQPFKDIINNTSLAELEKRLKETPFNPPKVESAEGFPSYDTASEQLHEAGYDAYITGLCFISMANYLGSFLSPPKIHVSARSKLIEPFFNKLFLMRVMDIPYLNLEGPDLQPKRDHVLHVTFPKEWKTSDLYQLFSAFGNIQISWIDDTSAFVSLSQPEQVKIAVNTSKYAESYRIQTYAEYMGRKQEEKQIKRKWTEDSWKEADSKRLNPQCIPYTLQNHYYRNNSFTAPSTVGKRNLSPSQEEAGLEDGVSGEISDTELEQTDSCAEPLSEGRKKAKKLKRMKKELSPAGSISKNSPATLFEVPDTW
In words: PARN Activity Assay. As to the method: The enzymatic activity was determined by the methylene blue assay.
One may read the Ki as the equilibrium dissociation constant of an inhibitor or competing ligand from its target. A higher Ki goes with lower affinity. In turn, `O=C(Nc1ncnc2c1ncn2C1OC(O)C(O)C(F)C1O)c1ccccc1` (stereo not drawn) [Nucleoside, A2] displayed a Ki of 510 µM.

On to `O=C(Nc1ccn(C2OC(CO)C(O)C(F)C2O)c(=O)n1)c1ccccc1` (stereo not drawn) [Nucleoside, A6], for which the affinity, expressed as Ki, was 210 µM.

As to `Nc1ccn(C2OC(CO)C(O)C(F)C2O)c(=O)n1` (stereo not drawn) [Nucleoside, C6], the Ki was found to be 645 µM.
